The source made the active and inactive calls. No cut-off for these calls is given here.
Legend:
HEK293 = test: Effect on Tet-induced Flag-tagged mouse TRPM7 expression in HEK293 cells; assay type: functional, cell-based; conditions: Homo sapiens
[1] = target: Transient receptor potential cation channel subfamily M member 7 (Mus musculus) (UniProt Q923J1); test: Inhibition of TRPM7 in mouse primary neuronal cells exposed to oxygen glucose deprivation condition for 1 to 3 hrs assessed as reduction in TRPM7-mediated anoxic cell death dosed before oxygen glucose deprivation condition by propidium iodide uptake assay; conditions: Primary neuron
[2] = target: Transient receptor potential cation channel subfamily M member 7 (Mus musculus) (UniProt Q923J1); test: Inhibition of TRPM7 in mouse mouse primary cortical neurons exposed to 1 hrs oxygen glucose deprivation condition assessed as reduction in TRPM7-mediated anoxic cell death at 1.25 to 10 uM measured after 20 hrs by propidium iodide uptake assay; assay type: cell-based; conditions: Cerebral cortex neuron
MCF7 = test: Inhibition of cell proliferation of human MCF7 cells at 10 uM incubated for 48 to 96 hrs; assay type: functional
[3] = target: Transient receptor potential cation channel subfamily M member 7 (Rattus norvegicus) (UniProt Q925B3); test: Inhibition of TRPM7 in rat H9C2 cells exposed to oxygen glucose deprivation condition for 1 to 6 hrs assessed as reduction in TRPM7-mediated anoxic cell death in presence of 1 uM nifedipine by propidium iodide uptake assay; assay type: cell-based
[4] = target: Transient receptor potential cation channel subfamily M member 7 (Rattus norvegicus) (UniProt Q925B3); test: Inhibition of TRPM7 in rat H9C2 cells assessed as reduction in channel currents at 0.3 to 30 uM by whole cell patch clamp assay; assay type: cell-based
[5] = target: Transient receptor potential cation channel subfamily M member 7 (Mus musculus) (UniProt Q923J1); test: Inhibition of TRPM7 in mouse primary neuronal cells exposed to oxygen glucose deprivation condition for 1 to 3 hrs assessed as reduction in TRPM7-mediated anoxic cell death dosed after oxygen glucose deprivation condition by propidium iodide uptake assay; conditions: Primary neuron
[6] = Inhibition of cell proliferation of mouse NIH/3T3 cells at 1.25 to 10 uM incubated for 72 hrs by propidium iodide staining assay; assay type: cell-based; conditions: nih3t3, 72 h
[7] = target: Transient receptor potential cation channel subfamily M member 7 (Rattus norvegicus) (UniProt Q925B3); test: Inhibition of TRPM7 in rat H9c2 cells assessed as protection against oxygen glucose deprivation-induced cell death at 0.05 to 5 uM; assay type: cell-based
[8] = Inhibition of cell proliferation of human WERI cells at 10 uM incubated for 48 to 96 hrs; assay type: functional
HeLa [9] = test: Inhibition of cell proliferation of human HeLa cells at 10 uM incubated for 48 to 96 hrs; assay type: functional
[10] = Inhibition of cell proliferation of mouse B16F10 cells at 10 uM incubated for 48 to 96 hrs; assay type: functional; conditions: B16-F10
[11] = target: Transient receptor potential cation channel subfamily M member 7 (Rattus norvegicus) (UniProt Q925B3); test: Inhibition of TRPM7 in rat H9c2 cells assessed as protection against oxygen glucose deprivation-induced cell death at 0.05 to 5 uM applied during OGD; assay type: cell-based
[12] = target: Transient receptor potential cation channel subfamily M member 7 (Rattus norvegicus) (UniProt Q925B3); test: Inhibition of TRPM7 in Sprague-Dawley rat retinal explants subjected to 1 hr oxygen-glucose deprivation assessed as reduction in retinal ischemia at 5 uM
[13] = target: Transient receptor potential cation channel subfamily M member 7 (Mus musculus) (UniProt Q923J1); test: Inhibition of Tet-induced Flag-tagged mouse TRPM7 expressed in HEK293 cells assessed as reduction in channel currents at 0.3 to 30 uM by whole cell patch clamp assay; assay type: cell-based
Mus musculus [14] = species: Mus musculus; test: Inhibition of sodium channel in mouse cortical neurons assessed as effect on Na+ currents
[15] = target: Transient receptor potential cation channel subfamily M member 7 (Rattus norvegicus) (UniProt Q925B3); test: Inhibition of TRPM7 in Sprague-Dawley rat retinal explants dissociated and subjected to 1 hr oxygen-glucose deprivation assessed as reduction in retinal cell death at 1 and 5 uM
MDA-MB-231 [16] = test: Inhibition of cell proliferation of human MDA-MB-231 cells at 10 uM incubated for 48 to 96 hrs; assay type: functional
[17] = target: Transient receptor potential cation channel subfamily M member 7 (Rattus norvegicus) (UniProt Q925B3); test: Inhibition of TRPM7 in rat H9c2 cells assessed as protection against oxygen glucose deprivation-induced cell death at 0.05 to 5 uM in presence of 1 uM nifedipine; assay type: cell-based
SW13 [18] = test: Inhibition of cell proliferation of human SW13 cells at 10 uM incubated for 48 to 96 hrs; assay type: functional
[19] = target: Transient receptor potential cation channel subfamily M member 7 (Rattus norvegicus) (UniProt Q925B3); test: Inhibition of TRPM7 in cultured rat retinal ganglion cells exposed to oxygen glucose deprivation condition for 3 hrs assessed as protection against TRPM7-mediated cell death at by propidium iodide uptake assay; design: scale not given: the % may be the effect or the level left
[20] = target: Transient receptor potential cation channel subfamily M member 7 (Rattus norvegicus) (UniProt Q925B3); test: Inhibition of TRPM7 in rat H9C2 cells exposed to 6 hrs oxygen glucose deprivation condition followed by 2 hrs recovery assessed as reduction in TRPM7-mediated anoxic cell death at 0.05 to 5 uM by propidium iodide uptake assay; assay type: cell-based
[21] = Inhibition of cell proliferation of mouse B16-F1 cells at 10 uM incubated for 48 to 96 hrs; assay type: functional
[22] = target: Transient receptor potential cation channel subfamily M member 7 (Mus musculus) (UniProt Q923J1); test: Inhibition of TRPM7 in mouse mouse primary cortical neurons exposed to 2 hrs oxygen glucose deprivation condition assessed as reduction in TRPM7-mediated anoxic cell death measured after 20 hrs by propidium iodide uptake assay; assay type: cell-based; conditions: Cerebral cortex neuron
Mus musculus [23] = test: Toxicity in mouse up to 150 uM, iv; assay type: organism-based; conditions: in vivo
[24] = target: Transient receptor potential cation channel subfamily M member 7 (Rattus norvegicus) (UniProt Q925B3); test: Inhibition of TRPM7 in rat retinal explants exposed to oxygen glucose deprivation condition for 1 hr assessed as protection against TRPM7-mediated cell death at by propidium iodide uptake assay
Y79 = test: Inhibition of cell proliferation of human Y79 cells at 10 uM incubated for 48 to 96 hrs; assay type: functional
Mus musculus [25] = species: Mus musculus; test: Inhibition of calcium channel in mouse cortical neurons assessed as effect on Ca2+ currents; assay type: functional
[26] = target: Transient receptor potential cation channel subfamily M member 7 (Mus musculus) (UniProt Q923J1); test: Inhibition of Tet-induced Flag-tagged mouse TRPM7 expressed in HEK293 cells assessed as inhibition of channel-mediated cell death in presence of Mg2+ incubated for 24 to 48 hrs by propidium iodide uptake assay; assay type: cell-based; design: concentration or dose not given beside the values
[27] = target: Transient receptor potential cation channel subfamily M member 7 (Rattus norvegicus) (UniProt Q925B3); test: Inhibition of TRPM7 in rat H9c2 cells assessed as protection against oxygen glucose deprivation-induced cell death at 0.05 to 5 uM pre-treated for 24 hrs before OGD; assay type: cell-based
Mus musculus [28] = species: Mus musculus; test: Inhibition of potassium channel in mouse cortical neurons assessed as reduction in potassium currents
[29] = target: Transient receptor potential cation channel subfamily M member 7 (Mus musculus) (UniProt Q923J1); test: Inhibition of TRPM7 in mouse AML12 cells assessed as protection against oxygen glucose deprivation-induced cell death at 0.5 to 5 uM; assay type: cell-based
[30] = target: Transient receptor potential cation channel subfamily M member 7 (Rattus norvegicus) (UniProt Q925B3); test: Inhibition of TRPM7 in rat H9c2 cells assessed as protection against oxygen glucose deprivation-induced cell death at 0.05 to 5 uM pre-treated for 24 hrs before OGD in presence of 1 uM nifedipine; assay type: cell-based
B16-F10 = test: Inhibition of cell proliferation of mouse B16F10 cells at 1.25 to 10 uM incubated for 72 hrs by SRB assay; assay type: functional, cell-based
MDA-MB-231 [31] = test: Inhibition of cell proliferation of human MDA-MB-231 cells at 1.25 to 10 uM incubated for 72 hrs by SRB assay; assay type: functional, cell-based
SW13 [32] = test: Inhibition of cell proliferation of human SW13 cells at 1.25 to 10 uM incubated for 48 hrs by BrdU incorporation assay; assay type: functional, cell-based
SW13 [33] = test: Inhibition of cell proliferation of human SW13 cells at 1.25 to 10 uM incubated for 72 hrs by SRB assay; assay type: functional, cell-based
H9c2 [34] = test: Toxicity against rat H9c2 cells at 10 uM; assay type: cell-based; conditions: h9c2, 10 µM
B16-F1 = test: Inhibition of cell proliferation of mouse B16-F1 cells at 1.25 to 10 uM incubated for 72 hrs by SRB assay; assay type: functional, cell-based
HeLa [35] = test: Inhibition of cell proliferation of human HeLa cells at 1.25 to 10 uM incubated for 48 hrs by BrdU incorporation assay; assay type: functional, cell-based
H9c2 [36] = test: Toxicity against rat H9c2 cells at 5 uM; assay type: cell-based; conditions: h9c2, 5 µM

Sequence of Transient receptor potential cation channel subfamily M member 7 (Rattus norvegicus) (Q925B3 whole entry): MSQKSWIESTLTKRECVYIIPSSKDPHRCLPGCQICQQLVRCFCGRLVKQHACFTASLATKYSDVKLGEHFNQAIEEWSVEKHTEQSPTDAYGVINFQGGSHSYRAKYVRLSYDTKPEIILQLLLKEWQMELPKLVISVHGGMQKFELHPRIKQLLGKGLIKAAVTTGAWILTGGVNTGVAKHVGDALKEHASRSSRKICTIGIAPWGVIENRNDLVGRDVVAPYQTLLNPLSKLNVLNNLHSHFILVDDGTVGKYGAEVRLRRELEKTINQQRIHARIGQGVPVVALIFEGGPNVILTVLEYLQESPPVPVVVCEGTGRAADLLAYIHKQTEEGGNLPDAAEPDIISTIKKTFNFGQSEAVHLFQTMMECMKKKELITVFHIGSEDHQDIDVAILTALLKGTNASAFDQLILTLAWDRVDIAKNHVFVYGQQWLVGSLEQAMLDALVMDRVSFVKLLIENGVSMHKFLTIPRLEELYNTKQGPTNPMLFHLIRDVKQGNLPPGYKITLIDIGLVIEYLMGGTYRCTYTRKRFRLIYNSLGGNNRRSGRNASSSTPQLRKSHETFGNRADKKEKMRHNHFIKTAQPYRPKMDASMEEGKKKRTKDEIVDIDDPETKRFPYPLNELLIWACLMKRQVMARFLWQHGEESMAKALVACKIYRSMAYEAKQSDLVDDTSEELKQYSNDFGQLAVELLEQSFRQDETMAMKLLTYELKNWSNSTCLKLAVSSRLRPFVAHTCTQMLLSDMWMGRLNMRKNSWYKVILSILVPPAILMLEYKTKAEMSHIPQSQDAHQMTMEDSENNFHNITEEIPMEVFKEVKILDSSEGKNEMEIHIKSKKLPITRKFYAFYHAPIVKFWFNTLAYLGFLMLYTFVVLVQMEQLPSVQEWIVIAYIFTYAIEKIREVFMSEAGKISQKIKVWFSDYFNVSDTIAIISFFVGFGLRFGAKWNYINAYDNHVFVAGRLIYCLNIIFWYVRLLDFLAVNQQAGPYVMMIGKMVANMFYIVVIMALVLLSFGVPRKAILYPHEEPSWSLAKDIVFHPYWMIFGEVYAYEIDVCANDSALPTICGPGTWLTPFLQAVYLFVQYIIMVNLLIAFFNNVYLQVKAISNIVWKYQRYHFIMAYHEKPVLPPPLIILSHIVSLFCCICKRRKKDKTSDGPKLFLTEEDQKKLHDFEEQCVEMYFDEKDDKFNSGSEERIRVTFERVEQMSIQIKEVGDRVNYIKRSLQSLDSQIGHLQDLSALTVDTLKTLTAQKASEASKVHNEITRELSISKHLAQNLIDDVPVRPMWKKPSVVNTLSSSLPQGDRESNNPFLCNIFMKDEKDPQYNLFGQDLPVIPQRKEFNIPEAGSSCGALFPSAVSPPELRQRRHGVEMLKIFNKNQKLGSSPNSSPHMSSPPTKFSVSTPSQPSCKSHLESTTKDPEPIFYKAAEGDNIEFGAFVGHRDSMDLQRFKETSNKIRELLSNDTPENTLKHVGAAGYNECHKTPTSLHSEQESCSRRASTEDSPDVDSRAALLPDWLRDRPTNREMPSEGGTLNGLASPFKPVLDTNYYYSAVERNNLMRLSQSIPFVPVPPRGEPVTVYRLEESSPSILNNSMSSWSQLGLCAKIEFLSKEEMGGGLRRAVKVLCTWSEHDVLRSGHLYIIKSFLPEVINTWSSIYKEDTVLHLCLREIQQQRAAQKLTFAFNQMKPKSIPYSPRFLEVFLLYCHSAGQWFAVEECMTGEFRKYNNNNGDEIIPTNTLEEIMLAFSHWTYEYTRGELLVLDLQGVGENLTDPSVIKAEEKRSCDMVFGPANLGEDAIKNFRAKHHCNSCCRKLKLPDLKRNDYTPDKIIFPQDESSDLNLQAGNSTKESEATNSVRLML
Sequence of Transient receptor potential cation channel subfamily M member 7 (Mus musculus) (Q923J1 whole entry): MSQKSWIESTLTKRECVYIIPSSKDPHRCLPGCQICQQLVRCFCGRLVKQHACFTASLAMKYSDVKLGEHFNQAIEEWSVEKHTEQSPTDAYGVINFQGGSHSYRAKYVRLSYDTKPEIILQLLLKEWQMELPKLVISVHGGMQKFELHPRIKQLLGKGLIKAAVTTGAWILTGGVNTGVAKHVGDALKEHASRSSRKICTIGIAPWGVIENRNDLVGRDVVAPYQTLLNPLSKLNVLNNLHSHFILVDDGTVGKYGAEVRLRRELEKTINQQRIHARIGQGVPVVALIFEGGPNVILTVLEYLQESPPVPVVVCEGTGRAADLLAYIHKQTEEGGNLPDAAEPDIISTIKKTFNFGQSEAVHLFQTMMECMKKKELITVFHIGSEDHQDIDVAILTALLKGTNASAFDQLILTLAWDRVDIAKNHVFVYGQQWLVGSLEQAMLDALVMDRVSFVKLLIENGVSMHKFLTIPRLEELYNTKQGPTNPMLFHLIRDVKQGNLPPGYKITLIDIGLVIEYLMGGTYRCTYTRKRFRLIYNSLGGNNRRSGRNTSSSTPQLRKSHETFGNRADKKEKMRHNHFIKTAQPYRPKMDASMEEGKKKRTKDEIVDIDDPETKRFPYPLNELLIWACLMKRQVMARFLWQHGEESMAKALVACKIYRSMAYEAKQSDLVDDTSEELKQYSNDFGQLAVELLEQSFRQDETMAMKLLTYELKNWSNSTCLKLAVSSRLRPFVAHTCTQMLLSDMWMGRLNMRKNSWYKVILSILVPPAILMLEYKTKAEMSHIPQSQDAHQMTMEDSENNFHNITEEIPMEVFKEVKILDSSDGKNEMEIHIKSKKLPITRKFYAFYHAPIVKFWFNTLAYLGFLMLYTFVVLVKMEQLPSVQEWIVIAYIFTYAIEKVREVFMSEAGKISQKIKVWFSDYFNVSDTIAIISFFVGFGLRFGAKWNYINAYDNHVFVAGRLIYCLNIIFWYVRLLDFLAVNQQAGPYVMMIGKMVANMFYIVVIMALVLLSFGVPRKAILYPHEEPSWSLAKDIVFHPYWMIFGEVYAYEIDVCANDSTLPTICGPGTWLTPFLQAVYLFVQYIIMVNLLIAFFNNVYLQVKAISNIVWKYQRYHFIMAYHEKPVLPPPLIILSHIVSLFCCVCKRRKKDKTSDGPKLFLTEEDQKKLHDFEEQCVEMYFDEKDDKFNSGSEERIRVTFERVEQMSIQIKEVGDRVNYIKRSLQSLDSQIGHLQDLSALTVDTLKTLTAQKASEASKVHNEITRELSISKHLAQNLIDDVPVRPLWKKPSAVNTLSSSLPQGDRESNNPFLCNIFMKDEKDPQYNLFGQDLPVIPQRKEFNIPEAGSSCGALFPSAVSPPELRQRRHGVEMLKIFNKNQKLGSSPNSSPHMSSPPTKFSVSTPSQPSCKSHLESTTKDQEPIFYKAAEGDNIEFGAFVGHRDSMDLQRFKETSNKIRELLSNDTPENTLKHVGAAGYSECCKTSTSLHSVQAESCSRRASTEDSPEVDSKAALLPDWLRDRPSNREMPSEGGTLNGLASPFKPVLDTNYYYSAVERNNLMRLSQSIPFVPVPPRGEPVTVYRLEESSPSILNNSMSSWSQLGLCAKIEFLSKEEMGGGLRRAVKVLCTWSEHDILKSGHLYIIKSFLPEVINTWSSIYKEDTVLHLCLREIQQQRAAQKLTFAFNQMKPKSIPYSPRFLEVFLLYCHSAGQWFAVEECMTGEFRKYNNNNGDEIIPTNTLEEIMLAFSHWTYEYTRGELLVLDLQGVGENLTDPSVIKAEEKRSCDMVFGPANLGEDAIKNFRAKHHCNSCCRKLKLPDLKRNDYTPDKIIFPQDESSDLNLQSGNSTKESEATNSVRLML

SMILES: O=C(O)c1cc(=O)cc(C(=O)O)[nH]1
- Activity (HEK293): inactive

SMILES: Cc1ccc2c(c1)CCCN2C(=O)c1sc2ccccc2c1Cl
- inhibition [1]: Active
- inhibition [2]: Active
- inhibition at 10 µM (MCF7): > 20%
- inhibition [3]: Active
- inhibition [4]: Active
- inhibition [5]: Active
- Activity [6]: Non-toxic
- inhibition [7]: Active
- inhibition at 10 µM [8]: > 20%
- inhibition at 10 µM (HeLa [9]): > 20%
- inhibition at 10 µM [10]: > 20%
- inhibition [11]: Active
- inhibition [12]: Active
- inhibition [13]: Active
- inhibition (Mus musculus [14]): inactive
- inhibition [15]: Active
- inhibition at 10 µM (MDA-MB-231 [16]): > 20%
- inhibition [17]: Active
- inhibition at 10 µM (SW13 [18]): > 20%
- Activity [19]: 66%
- inhibition [20]: Active
- inhibition at 10 µM [21]: > 20%
- inhibition [22]: Active
- Activity (Mus musculus [23]): Non-toxic
- inhibition [24]: Active
- inhibition at 10 µM (Y79): > 20%
- inhibition (Mus musculus [25]): inactive
- inhibition ([26]; concentration not given here): 80%
- inhibition [27]: Active
- inhibition (Mus musculus [28]): Active
- inhibition [29]: Active
- inhibition [30]: Active

SMILES: Cc1ccc(-n2c(-c3ccc(Cl)c(C)c3)csc2=N)c(C)c1.Cl
- inhibition [1]: Active
- inhibition (B16-F10): Active
- inhibition (MDA-MB-231 [31]): Active
- inhibition (SW13 [32]): Active
- inhibition [4]: Active
- inhibition [5]: Active
- Activity [6]: Non-toxic
- inhibition (SW13 [33]): Active
- inhibition at 10 µM [8]: > 20%
- inhibition [13]: Active
- Activity (H9c2 [34]): Toxic
- inhibition [22]: Active
- inhibition (B16-F1): Active
- inhibition (HeLa [35]): Active
- inhibition ([26]; concentration not given here): 80%
- Activity (H9c2 [36]): Non-toxic

SMILES: CCN(CC)CCCC(C)Nc1c2ccc(Cl)cc2nc2ccc(OC)cc12 (configuration not stated)
- Activity (HEK293): inactive

SMILES: O=C1c2c(O)ccc(O)c2C(=O)c2c(NCCNCCO)ccc(NCCNCCO)c21
- Activity (HEK293): inactive

SMILES: COc1ccccc1N1CCN(CC(O)COc2cccc3ccccc23)CC1 (configuration not stated)
- Activity (HEK293): inactive
- inhibition [26]: Dose-dependent effect

SMILES: Ic1ccccc1CN[C@@H]1C2CCN(CC2)[C@@H]1C(c1ccccc1)c1ccccc1 (relative stereo)
- Activity (HEK293): inactive
- inhibition [26]: Dose-dependent effect

SMILES: COc1cc2c(cc1OC)-c1c/c(=N\c3c(C)cc(C)cc3C)n(C)c(=O)n1CC2
- Activity (HEK293): inactive
- inhibition [26]: Dose-dependent effect

SMILES: COc1ccc(OC)c(SCc2nnc(-c3ccc([N+](=O)[O-])c(C)c3)o2)c1
- inhibition [1]: Active
- inhibition [4]: Active
- inhibition [5]: Active
- inhibition at 10 µM [8]: > 20%
- inhibition [13]: Active
- inhibition [22]: Active
- inhibition ([26]; concentration not given here): 80%

SMILES: COC(=O)C1=C(C)NC(C)=C(C(=O)OCCN(C)Cc2ccccc2)C1c1cccc([N+](=O)[O-])c1 (configuration not stated)
- Activity (HEK293): inactive

SMILES: COc1cccc(OC)c1OCCNCC1CSc2ccccc2O1 (configuration not stated)
- Activity (HEK293): inactive
- inhibition [26]: Dose-dependent effect

SMILES: C[n+]1cc2c3c(ccc2c2ccc4cc5c(cc4c21)OCO5)OCO3
- Activity (HEK293): inactive

SMILES: O=C1c2ccccc2C(=O)N1Cc1cccc(I)c1
- inhibition ([26]; concentration not given here): 40%

SMILES: CC(=O)C(C#N)c1nc(-c2ccc(Cl)c(C)c2)cs1 (configuration not stated)
- inhibition ([26]; concentration not given here): 70%

SMILES: CSc1scc2c1-c1n[nH]cc1CC2
- inhibition ([26]; concentration not given here): < 30%

SMILES: N#C/C(=N\Nc1cccc(C(F)(F)F)c1)C(=O)c1csc(-c2cccnc2)n1
- inhibition ([26]; concentration not given here): 60%

SMILES: O/N=C/c1ccc2c(c1)CCO2
- inhibition ([26]; concentration not given here): < 30%

SMILES: CCCCCCCC(=O)NC1=NC2c3ccc(OC)cc3CCC2S1 (configuration not stated)
- inhibition ([26]; concentration not given here): 70%

SMILES: CC(=O)Nc1ccc(S(=O)(=O)Nc2ccccc2C#N)cc1
- inhibition ([26]; concentration not given here): < 30%

SMILES: Cc1onc(-c2ccccc2Cl)c1C(=O)NNc1cccc(C(F)(F)F)n1
- inhibition ([26]; concentration not given here): < 30%

SMILES: CCOC(=O)C(Nc1ccccc1)C(=O)OCC
- inhibition ([26]; concentration not given here): 30%

SMILES: Cc1cc(Sc2ncnc3cc(-c4ccc(F)cc4)sc23)c(C)cc1Cl
- inhibition ([26]; concentration not given here): < 30%

SMILES: Cc1cc(C)cc(N/C=C(\C#N)S(=O)(=O)c2ccc(Cl)cc2)c1
- inhibition ([26]; concentration not given here): < 30%

SMILES: O=S(=O)(c1cccc(Cl)c1)N1CCC(O)(c2ccc(Cl)cc2)CC1
- inhibition ([26]; concentration not given here): 70%

SMILES: CN1c2ccccc2C(C)(C)C12C=Cc1c(ccc3ccccc13)O2 (configuration not stated)
- inhibition ([26]; concentration not given here): < 30%

SMILES: CC(=O)Nc1cc(C)ccc1C
- inhibition ([26]; concentration not given here): < 30%

— ChEMBL document CHEMBL3727350, “Agents and methods for treating ischemic and other diseases” (2014)
